Where “and” joins values, the source holds several entries; their conditions need not be identical. Equal entries are not always repeated. Where two headings read alike, the source gives them in different places.
How the values were obtained:
healthy human subjects [1] = test: Adverse effects, list of complaints (LC) score, LSD-MDMA clinical study; conditions: 0.1 mg LSD, 100 mg MDMA or both; mean of two subjects; placebo 5
humans = conditions: cited from earlier work
healthy human subjects [2] = test: Subjective effects Visual Analog Scales (VAS), LSD-MDMA clinical study; conditions: for peak subjective effects ratings of any drug effect (VAS): oral, mean of two healthy subjects; for bad drug effects (VAS): FIG. 3A; for ratings of being talkative (VAS): FIG. 8A; for wanting to be alone / with other people (VAS): FIGS. 10A and 10B
[3] = test system: serotonin 5-HT1 receptors; conditions: Rickli et al., 2016; cited from earlier work
D1-3 receptors = conditions: Rickli et al., 2016; cited from earlier work
5-HT2A receptor = 5-HT2A receptor (Homo sapiens, UniProt P28223); conditions: Rickli et al., 2016; cited from earlier work
healthy human subjects [4] = conditions: two subjects; FIGS. 12, 13
5-HT transporter (SERT) = 5-HT transporter (SERT) (Homo sapiens, UniProt P31645); conditions: Rickli et al., 2016; cited from earlier work
healthy humans = conditions: cited from earlier work
D2 receptors = D2 receptors (Homo sapiens, UniProt P14416); conditions: cited from earlier work
[5] = oral administration (Vizeli et al., 2017)
[6] = 0.1 mg LSD, 100 mg MDMA or both, FIG. 2A
[7] = 0.1 mg LSD, 100 mg MDMA or both, two subjects

Chain of 5-HT transporter (SERT) (P31645 whole entry, species assumed): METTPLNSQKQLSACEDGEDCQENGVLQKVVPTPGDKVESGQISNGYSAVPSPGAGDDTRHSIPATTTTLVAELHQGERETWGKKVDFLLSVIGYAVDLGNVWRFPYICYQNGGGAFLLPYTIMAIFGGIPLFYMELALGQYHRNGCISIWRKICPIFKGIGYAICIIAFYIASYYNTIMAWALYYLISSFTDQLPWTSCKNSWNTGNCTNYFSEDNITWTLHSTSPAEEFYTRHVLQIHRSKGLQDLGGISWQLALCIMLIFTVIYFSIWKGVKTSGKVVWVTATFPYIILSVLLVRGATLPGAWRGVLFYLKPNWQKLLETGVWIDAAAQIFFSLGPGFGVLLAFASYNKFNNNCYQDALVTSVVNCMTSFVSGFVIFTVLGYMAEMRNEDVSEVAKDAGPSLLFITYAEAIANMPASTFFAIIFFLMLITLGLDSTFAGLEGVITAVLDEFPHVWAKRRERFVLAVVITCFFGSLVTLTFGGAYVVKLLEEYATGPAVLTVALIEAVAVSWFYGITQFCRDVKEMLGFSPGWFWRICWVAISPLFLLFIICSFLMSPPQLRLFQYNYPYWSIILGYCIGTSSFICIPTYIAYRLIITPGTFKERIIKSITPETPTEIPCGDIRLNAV
Chain of D2 receptors (P14416 whole entry): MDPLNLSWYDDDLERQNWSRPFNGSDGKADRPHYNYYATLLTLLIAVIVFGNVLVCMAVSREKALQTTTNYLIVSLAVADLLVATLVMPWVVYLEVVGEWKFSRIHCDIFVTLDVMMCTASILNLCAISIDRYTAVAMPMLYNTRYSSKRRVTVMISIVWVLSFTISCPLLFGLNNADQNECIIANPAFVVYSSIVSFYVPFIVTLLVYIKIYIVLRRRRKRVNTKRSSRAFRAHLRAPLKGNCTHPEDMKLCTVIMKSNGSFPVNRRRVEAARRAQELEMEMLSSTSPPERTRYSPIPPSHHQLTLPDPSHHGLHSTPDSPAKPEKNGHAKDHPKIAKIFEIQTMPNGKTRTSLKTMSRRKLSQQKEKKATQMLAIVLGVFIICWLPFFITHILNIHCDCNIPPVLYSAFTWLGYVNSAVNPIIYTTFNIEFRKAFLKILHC
Chain of 5-HT2A receptor (P28223 whole entry): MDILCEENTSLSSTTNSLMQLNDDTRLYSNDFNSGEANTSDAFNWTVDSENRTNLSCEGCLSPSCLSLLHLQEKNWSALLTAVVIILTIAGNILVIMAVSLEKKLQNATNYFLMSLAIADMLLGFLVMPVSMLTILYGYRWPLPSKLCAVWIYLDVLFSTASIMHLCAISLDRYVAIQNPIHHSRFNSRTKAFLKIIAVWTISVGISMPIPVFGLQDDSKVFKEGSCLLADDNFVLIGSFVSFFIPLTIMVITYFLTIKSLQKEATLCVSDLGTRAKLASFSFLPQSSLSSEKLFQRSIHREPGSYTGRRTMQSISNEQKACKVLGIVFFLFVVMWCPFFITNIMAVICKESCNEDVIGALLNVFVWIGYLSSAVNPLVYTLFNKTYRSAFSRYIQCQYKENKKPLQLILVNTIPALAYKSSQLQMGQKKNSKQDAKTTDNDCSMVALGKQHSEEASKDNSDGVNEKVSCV

CNC(C)Cc1ccc2c(c1)OCO2 (stereo not shown) [MDMA, 3,4-methylenedioxymethamphetamine]
Total average LC scores (healthy human subjects [1]): 12 | duration of the subjective effect (humans; MDMA (Vizeli et al., 2017)): 4.2 ± 1.3 h | onset of the MDMA effect (mean±SD) (humans; [5]): 33 ± 24 min and 33 min | time to peak effect after MDMA administration (humans; [5]): 1.6 ± 0.8 h and 1.6 h | peak subjective effects ratings of any drug effect (VAS) (healthy human subjects [2]; [6]): comparable peak subjective effects ratings | bad drug effects (VAS) (healthy human subjects [2]; [7]): moderately increased subjective bad drug effect ratings | ratings of openness (VAS) (healthy human subjects [2]; two subjects): increases ratings of openness | ratings of being talkative (VAS) (healthy human subjects [2]; two subjects): increases ratings of being talkative | ratings of trust (VAS) (healthy human subjects [2]; two subjects, FIG. 9A): increases feelings of trust | wanting to be alone / with other people (VAS) (healthy human subjects [2]; two subjects): wanted to be with others and not alone

CCN(CC)C(=O)[C@@H]1C=C2c3cccc4[nH]cc(c34)C[C@H]2N(C)C1 [LSD, lysergic acid diethylamide]
agonist potency at serotonin 5-HT1 receptors [3]: potent agonists | stimulation of D1-3 receptors (D1-3 receptors): stimulates D1-3 receptors | stimulation of the 5-HT2A receptor (5-HT2A receptor): potently stimulates | Total average LC scores (healthy human subjects [1]): 18 | alterations of consciousness on the 5D-ASC main and subscales (healthy human subjects [4]): comparable degrees of alterations of consciousness | interaction with the SERT (5-HT transporter (SERT)): does not interact with the SERT | time of onset of the subjective response, any drug effect VAS (mean±SD) (healthy humans; 0.1 mg LSD (Holze et al., 2019a), range 0.3-1.0): 0.7 ± 0.2 h | duration of subjective effects (mean±SD) (healthy humans; 0.1 mg LSD (Holze et al., 2019a), range 5.3-12.8): 8.5 ± 2.0 h | time of offset of the subjective response, any drug effect VAS (mean±SD) (healthy humans; 0.1 mg LSD (Holze et al., 2019a), range 6.0-13.2): 9.1 ± 2.0 h | subjects with bad drug effects (50% or more on a 0-100% scale at any time point) (healthy humans; 0.1 mg LSD, 3 of 24 subjects (Dolder et al., 2017)): 12.5% | subjects with transient bad drug effects (healthy humans; 0.1 mg LSD, 7 of 24 subjects (Holze et al., 2019a)): 29% | duration of LSD effects (healthy humans; 0.1 mg dose (Dolder et al., 2017), range 5-14): 8.2 ± 2.1 h | subjects with bad drug effects (50% or more on a 0-100% scale at any time point) (healthy humans; 0.2 mg LSD, 9 of 16 subjects (Dolder et al., 2017)): 56% | subjects with marked anxiety (healthy humans; 0.2 mg LSD, sixteen healthy humans (Schmid et al., 2015)): two | duration of LSD effects (healthy humans; 0.2 mg dose (Dolder et al., 2017), range 7-19.5): 11.6 ± 1.7 h | subjective response to LSD compared to MDMA (healthy humans; LSD 0.1 mg vs MDMA 125 mg (Holze et al., 2019b)): clearly more pronounced | time to the subjective peak effect (healthy humans; LSD (Holze et al., 2019a), range 1.6-4.3): 2.5 ± 0.6 h and 2.5 h | start of LSD effect, on average (healthy humans; oral administration): 42 min | time after administration at which anxiety mostly occurs (peak effects) (healthy humans; oral dosing formulation of LSD): 1 to 4 h | peak subjective effects ratings of any drug effect (VAS) (healthy human subjects [2]; [6]): comparable peak subjective effects ratings | duration of any drug effect (VAS) (healthy human subjects [2]; 0.1 mg LSD, 100 mg MDMA or both, two subjects, FIG. 2A): lasted longer than those of MDMA | good drug effects duration (VAS) (healthy human subjects [2]; 0.1 mg LSD, 100 mg MDMA or both, two subjects, FIG. 2B): lasted longer | bad drug effects (VAS) (healthy human subjects [2]; [7]): minor subjective bad drug effects | anxiety (VAS) (healthy human subjects [2]; 0.1 mg LSD, 100 mg MDMA or both, two subjects, FIG. 3B): moderate anxiety at drug effect onset | nausea (VAS) (healthy human subjects [2]; 0.1 mg LSD, two subjects, FIG. 4B): moderate nausea at drug effect onset | ratings of openness (VAS) (healthy human subjects [2]; two subjects): lower increases in openness | changes in visual perception (VAS) (healthy human subjects [2]; two subjects, FIG. 5A): comparable changes in visual perception | synaesthesias (sounds influencing visual perception) (VAS) (healthy human subjects [2]; two subjects, FIG. 5B): comparable changes | changes in the perception of time (VAS) (healthy human subjects [2]; two subjects, FIG. 6A): comparable changes in the perception of time | ratings of being talkative (VAS) (healthy human subjects [2]; two subjects): reduces talkative | degree of intro or extroversion (VAS) (healthy human subjects [2]; two subjects, FIG. 11): no effect | wanting to be alone / with other people (VAS) (healthy human subjects [2]; two subjects): wanted to be with others and not alone

COc1cc(CCN)cc(OC)c1OC [mescaline]
agonist potency at serotonin 5-HT1 receptors [3]: low potency | affinity for D2 receptors (D2 receptors): no affinity

CN(C)CCc1c[nH]c2cccc(O)c12 [psilocin]
agonist potency at serotonin 5-HT1 receptors [3]: potent agonists | interaction with the SERT (5-HT transporter (SERT)): inhibits the 5-HT transporter

Source: patent US11963946B2, “MDMA treatment to enhance acute emotional effects profile of LSD, psilocybin, or other psychedelics” (Universitätsspital Basel, priority 2020, dated 2024)
